From patent US11472798B2 (Mission Therapeutics Limited, priority 2014, dated 2022)

molecular target: T1, UCHL1 (Homo sapiens, UniProt P09936); assay: UCHL1 biochemical IC50 assay (fluorescence polarisation); settings: 30 min enzyme/compound pre-incubation at room temp, read after 2 hr incubation, read-out: Activity range (UCHL1 biochemical IC50 assay)
T1 construct: made in house; host or cells: HEK293T
T1 sequence (P09936 1-223): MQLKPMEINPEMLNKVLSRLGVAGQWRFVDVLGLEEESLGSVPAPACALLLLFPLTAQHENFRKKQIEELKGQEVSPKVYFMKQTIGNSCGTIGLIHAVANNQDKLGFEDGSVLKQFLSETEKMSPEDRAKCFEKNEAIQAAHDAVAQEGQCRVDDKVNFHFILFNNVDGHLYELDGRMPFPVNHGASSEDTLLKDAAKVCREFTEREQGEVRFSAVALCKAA
Method in brief: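 FLAG-UCHL1 purified from transfected HEK293T cells was preincubated 30 min at room temperature with compound (8 points, 100–0.03 μM final) in Tris pH 7.5 buffer with Tween 20, BSA and beta-mercaptoethanol. Reaction started with 50 nM TAMRA-peptide–ubiquitin isopeptide substrate; fluorescence polarisation (ex 540/em 590 nm) read at once and after 2 h.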

Question: How did the IC50 turn out when C[C@@H]1CN(C#N)C[C@H]1C(=O)Nc1cn(-c2ccccc2)cn1 [Example 85, (f)-1-cyano-4-methyl-N-(1-phenyl-1H-imidazol-4-yl)pyrrolidine-3-carboxamide] was run?
Answer: 1000 to 10000 nM

Question: For CC[C@@H]1CN(C#N)C[C@H]1C(=O)Nc1cn(-c2ccccc2)cn1 [Example 87, (6)-1-cyano-4-ethyl-N-(1-phenyl-1H-imidazol-4-yl)pyrrolidine-3-carboxamide], which IC50 is on record?
Answer: 1000 to 10000 nM

Question: N#CN1CC[C@H](C(=O)Nc2ncc(N3CCOCC3)s2)C1 [Example 91, (S)-1-cyano-N-(5-morpholinothiazol-2-yl)pyrrolidine-3-carboxamide] was tested. Which IC50 did it give?
Answer: < 1000 nM

Question: For CN1CCN(c2cnc(NC(=O)C3CCN(C#N)C3)s2)CC1 (stereo not drawn) [Example 92, 1-cyano-N-(5-(4-methylpiperazin-1-yl)thiazol-2-yl)pyrrolidine-3-carboxamide], which IC50 is on record?
Answer: < 1000 nM

Question: Which IC50 does the source give for CC(=O)NCC1CCCCN1c1cnc(NC(=O)C2CCN(C#N)C2)s1 (stereo not drawn) [Example 93, N-(5-(2-(acetamidomethyl)piperidin-1-yl)thiazol-2-yl)-1-cyanopyrrolidine-3-carboxamide] here?
Answer: < 1000 nM

Question: How did the IC50 turn out when CN(c1ccccc1)c1cnc(NC(=O)C2CCN(C#N)C2)s1 (stereo not drawn) [Example 94, 1-cyano-N-(5-(methyl(phenyl)amino)thiazol-2-yl)pyrrolidine-3-carboxamide] was run?
Answer: < 1000 nM

Question: How did the IC50 turn out when N#CN1CCC(C(=O)Nc2ncc(N3CCc4ccccc43)s2)C1 (stereo not drawn) [Example 95, 1-cyano-N-(5-(indolin-1-yl)thiazol-2-yl)pyrrolidine-3-carboxamide] was run?
Answer: < 1000 nM

Question: N#CN1CC[C@H](C(=O)Nc2ncc(N3CCCCC3)s2)C1 [Example 96, (S)-1-cyano-N-(5-(piperidin-1-yl)thiazol-2-yl)pyrrolidine-3-carboxamide] was tested. Which IC50 did it give?
Answer: < 1000 nM

Question: N#CN1CC[C@H](C(=O)Nc2ncc(N3Cc4ccccc4C3)s2)C1 [Example 97, (S)-1-cyano-N-(5-(isoindolin-2-yl)thiazol-2-yl)pyrrolidine-3-carboxamide] was tested. Which IC50 did it give?
Answer: < 1000 nM

Question: Which IC50 does the source give for N#CN1CC[C@H](C(=O)Nc2ncc(N3CCc4ccccc4C3)s2)C1 [Example 98, (S)-1-cyano-N-(5-(3,4-dihydroisoquinolin-2(1H)-yl)thiazol-2-yl)pyrrolidine-3-carboxamide] here?
Answer: 1000 to 10000 nM

Question: How did the IC50 turn out when COC[C@H]1CCCN1c1cnc(NC(=O)[C@H]2CCN(C#N)C2)s1 [Example 99, (S)-1-cyano-N-(5-((R)-2-(methoxymethyl)pyrrolidin-1-yl)thiazol-2-yl)pyrrolidine-3-carboxamide] was run?
Answer: < 1000 nM

Question: With COC[C@@H]1CCCN1c1cnc(NC(=O)[C@H]2CCN(C#N)C2)s1 [Example 100, (S)-1-cyano-N-(5-((S)-2-(methoxymethyl)pyrrolidin-1-yl)thiazol-2-yl)pyrrolidine-3-carboxamide] as the molecule, how does the IC50 read?
Answer: < 1000 nM

Question: With N#CN1CC[C@H](C(=O)Nc2ncc(N3CCNC(=O)CC3)s2)C1 [Example 101, (S)-1-cyano-N-(5-(5-oxo-1,4-diazepan-1-yl)thiazol-2-yl)pyrrolidine-3-carboxamide] as the molecule, how does the IC50 read?
Answer: < 1000 nM

Question: Which IC50 does the source give for N#CN1CC[C@@H](C(=O)Nc2ncc(N3CCOCC3)s2)C1 [Example 102, (R)-1-cyano-N-(5-morpholinothiazol-2-yl)pyrrolidine-3-carboxamide] here?
Answer: 1000 to 10000 nM

Question: For N#CN1CC[C@@H](C(=O)Nc2ncc(N3CCCCC3)s2)C1 [Example 103, (R)-1-cyano-N-(5-(piperidin-1-yl)thiazol-2-yl)pyrrolidine-3-carboxamide], which IC50 is on record?
Answer: 1000 to 10000 nM

Question: For CC1CC(C(=O)Nc2ncc(N3CCCCC3)s2)CN1C#N (stereo not drawn) [Example 105, 1-cyano-5-methyl-N-(5-(piperidin-1-yl)thiazol-2-yl)pyrrolidine-3-carboxamide], which IC50 is on record?
Answer: 1000 to 10000 nM

Question: For N#CN1CC[C@H](C(=O)Nc2cccc(N3CCCC3)n2)C1 [Example 106, (S)-1-cyano-N-(6-(pyrrolidin-1-yl)pyridin-2-yl)pyrrolidine-3-carboxamide], which IC50 is on record?
Answer: 10000 to 30000 nM

Question: For N#CN1CC[C@H](C(=O)Nc2cc(N3CCCC3)ccn2)C1 [Example 107, (S)-1-cyano-N-(4-(pyrrolidin-1-yl)pyridin-2-yl)pyrrolidine-3-carboxamide], which IC50 is on record?
Answer: 1000 to 10000 nM

Question: How did the IC50 turn out when N#CN1CC[C@H](C(=O)Nc2cnc(N3CCCC3)cn2)C1 [Example 108, (S)-1-cyano-N-(5-(pyrrolidin-1-yl)pyrazin-2-yl)pyrrolidine-3-carboxamide] was run?
Answer: 1000 to 10000 nM

Question: With N#CN1CCC(C(=O)Nc2ncc(-c3ccccc3N)s2)C1 (stereo not drawn) [Example 109, N-(5-(2-aminophenyl)thiazol-2-yl)-1-cyanopyrrolidine-3-carboxamide] as the molecule, how does the IC50 read?
Answer: 1000 to 10000 nM

Question: How did the IC50 turn out when N#CN1CCC(C(=O)Nc2ncc(-c3cccc(N)c3)s2)C1 (stereo not drawn) [Example 110, N-(5-(3-aminophenyl)thiazol-2-yl)-1-cyanopyrrolidine-3-carboxamide] was run?
Answer: 1000 to 10000 nM

Question: N#CN1CCC(C(=O)Nc2ncc(-c3ccc(N)cc3)s2)C1 (stereo not drawn) [Example 111, N-(5-(4-aminophenyl)thiazol-2-yl)-1-cyanopyrrolidine-3-carboxamide] was tested. Which IC50 did it give?
Answer: < 1000 nM

Question: N#CN1CCC(C(=O)Nc2ncc(-c3cccnc3)s2)C1 (stereo not drawn) [Example 112, 1-cyano-N-(5-(pyridin-3-yl)thiazol-2-yl)pyrrolidine-3-carboxamide] was tested. Which IC50 did it give?
Answer: < 1000 nM

Question: With N#CN1CCC(C(=O)Nc2ncc(/C=C/C3CC3)s2)C1 (stereo not drawn) [Example 113, (E)-1-cyano-N-(5-(2-cyclopropylvinyl)thiazol-2-yl)pyrrolidine-3-carboxamide] as the molecule, how does the IC50 read?
Answer: < 1000 nM

Question: Which IC50 does the source give for CC(=O)Nc1ccc(-c2cnc(NC(=O)C3CCN(C#N)C3)s2)cc1 (stereo not drawn) [Example 114, N-(5-(4-acetamidophenyl)thiazol-2-yl)-1-cyanopyrrolidine-3-carboxamide] here?
Answer: < 1000 nM

Question: With CC(=O)Nc1ccccc1-c1cnc(NC(=O)C2CCN(C#N)C2)s1 (stereo not drawn) [Example 115, N-(5-(2-acetamiclophenyl)thiazol-2-yl)-1-cyanopyrrolidine-3-carboxamide] as the molecule, how does the IC50 read?
Answer: 1000 to 10000 nM

Question: How did the IC50 turn out when CS(=O)(=O)Nc1cccc(-c2cnc(NC(=O)C3CCN(C#N)C3)s2)c1 (stereo not drawn) [Example 116, 1-cyano-N-(5-(3-(methyl-sulfonamido)phenyl)thiazol-2-yl)pyrrolidine-3-carboxamide] was run?
Answer: < 1000 nM

Question: How did the IC50 turn out when N#Cc1cccc(-c2cnc(NC(=O)[C@H]3CCN(C#N)C3)s2)c1 [Example 117, (S)-1-cyano-N-(5-(3-cyanophenyl)thiazol-2-yl)pyrrolidine-3-carboxamide] was run?
Answer: < 1000 nM

Question: N#Cc1ccc(-c2cnc(NC(=O)[C@H]3CCN(C#N)C3)s2)cc1 [Example 118, (S)-1-cyano-N-(5-(4-cyanophenyl)thiazol-2-yl)pyrrolidine-3-carboxamide] was tested. Which IC50 did it give?
Answer: < 1000 nM

Question: With Cc1noc(C)c1-c1ccc2sc(NC(=O)C3CCN(C#N)C3)nc2c1 (stereo not drawn) [Example 119, 1-cyano-N-(5-(3,5-dimethylisoxazol-4-yl)benzo[d]thiazol-2-yl)pyrrolidine-3-carboxamide] as the molecule, how does the IC50 read?
Answer: 1000 to 10000 nM

Question: Which IC50 does the source give for Cc1noc(C)c1-c1ccc2nc(NC(=O)[C@H]3CCN(C#N)C3)sc2c1 [Example 120, (S)-1-cyano-N-(6-(3,5-dimethylisoxazol-4-yl)benzo[d]thiazol-2-yl)pyrrolidine-3-carboxamide] here?
Answer: < 1000 nM

Question: How did the IC50 turn out when COc1ccc(-c2ccc3nc(NC(=O)[C@H]4CCN(C#N)C4)sc3c2)cc1 [Example 121, (S)-1-cyano-N-(6-(4-methoxyphenyl)benzo[d]thiazol-2-yl)pyrrolidine-3-carboxamide] was run?
Answer: 1000 to 10000 nM

Question: Which IC50 does the source give for N#CN1CC[C@H](C(=O)Nc2nc3ccc(-c4ccccc4)cc3s2)C1 [Example 122, (S)-1-cyano-N-(6-phenylbenzo[d]thiazol-2-yl)pyrrolidine-3-carboxamide] here?
Answer: 1000 to 10000 nM
